According to US6610708B1, “Cyclic amino compounds” (Sankyo Company, Limited, priority 1998, dated 2003):

Legend:
platelet aggregation = assay: Antiaggregatory action in rats (ADP-induced platelet aggregation in PRP after intravenous administration); format: in vivo; conditions: Rattus norvegicus, 1 h, male SD rats, blood collected one hour after administration, versus control rats, read-out: Test 2 (% inhibition)
Method: Antiaggregatory Action in Rats
Platelet aggregation was measured using an automatic platelet aggregometer (PAM-8C, Mebanix) using the method of G.V.R. Born [Nature, 194, 927-929(1962)] with a slight modification. The experimental animals were male SD rats (Japan SLC). One hour after intravenous administration of a test compound to the rats, blood was collected from the abdominal aorta under anesthesia, using 3.8% sodium citrate as an anticoagulant ( 1/9 volumes of blood). Platelet-rich plasma (PRP) was obtained by centrifugation (CR5DL, Hitachi) at 230× g for 15 min at room temperature. Platelet-poor plasma (PPP) was obtained by centrifugation of the remaining blood at 2,000× g for 10 min at room temperature. Platelet counts in PRP were measured by an automatic hematology analyzer (K-1000, Toa Iyo Denshi), and adjusted to 5×10^8 /ml by adding PPP, and then used for the platelet aggregation experiment. PRP (0.24 ml) was added to a cuvette and placed in the platelet aggregometer. After pre-incubation for 1.5 min at 37° C., 0.01 ml of 0.75 mM ADP were added to the cuvette to induce platelet aggregation. Platelet aggregation was monitored for 8 min.
Antiaggregatory action (% inhibition) of the test compound was determined from a comparison of the maximum aggregation of the test compound-treated rat with that of control rats (free of the administration of the test compound).

Human Platelets = assay: Antiaggregatory action in human platelets (ADP-induced aggregation in platelet-rich plasma); format: cell-based; conditions: Platelet, human PRP, read-out: Test 1 (% inhibition) of platelet aggregation; for inhibition at 10 µg/mL: 10 μg/ml test compound; for inhibition at 30 µg/mL: 30 μg/ml test compound; for inhibition at 100 µg/mL: 100 μg/ml test compound
Method: Antiaggregatory Action in Human Platelets
Platelet aggregation was measured using an automatic platelet aggregometer (PAM-8C, Mebanix) using the method of G.V.R. Born [Nature, 194, 927-929 ([…])] with a slight modification. Blood was collected from the antecubital vein of healthy volunteers who had not taken any medications for two weeks using 3.8% sodium citrate as an anticoagulant ( 1/9 volumes of blood). Platelet-rich plasma (PRP) was obtained by centrifugation (CR5DL, Hitachi) at 200× g for 15 min at room temperature. Platelet-poor plasma (PPP) was obtained by centrifugation of the remaining blood at 2,000× g for 10 min at room temperature. Platelet counts in PRP were measured by an automatic hematology analyzer (K-1000, Toa Iyo Denshi), and adjusted to 3×10^8 /ml by adding PPP. PRP prepared as described above was used for the platelet aggregation experiment. PRP (0.24 ml) containing a test compound was added to a cuvette and set placed in the platelet aggregometer. After pre-incubation for 1.5 min at 37° C., 0.01 ml of 0.25 mM ADP were added to the cuvette to induce platelet aggregation. Platelet aggregation was monitored for 10 min.
Antiaggregatory action of the test compound was determined as a percent inhibition (%) against platelet aggregation of a control (free of the test compound).

CCOC(=O)/C=C1\CN(C(C(=O)C2CC2)c2ccccc2F)CCC1SS(=O)(=O)c1ccc(C)cc1 (stereo not drawn) [Example 6 (d), (E)-1-(α-Cyclopropylcarbonyl-2-fluorobenzyl)-3-ethoxycarbonylmethylidene-4-(4-methylphenylsulfonylthio)piperidine]
inhibition at 10 mg/kg (platelet aggregation): 51.8%
inhibition at 10 µg/mL (Human Platelets): 22.5%
inhibition at 30 µg/mL (Human Platelets): 53.2%
inhibition at 100 µg/mL (Human Platelets): 100%

CCOC(=O)/C=C1\CN(C(C(=O)OC)c2ccccc2Cl)CCC1SS(=O)(=O)c1ccc(C)cc1.Cl (stereo not drawn) [Example 7 (d), (E)-1-(2-chloro-α-methoxycarbonylbenzyl)-3-ethoxycarbonylmethylidene-4-(4-methylphenylsulfonylthio)piperidine hydrochloride]
inhibition at 10 mg/kg (platelet aggregation): 59%
inhibition at 10 µg/mL (Human Platelets): 24.6%
inhibition at 30 µg/mL (Human Platelets): 60%
inhibition at 100 µg/mL (Human Platelets): 99.1%
melting point: 73 to 78 °C

N[C@@H](CSSC1CCN(C(C(=O)C2CC2)c2ccccc2F)C/C1=C/C(=O)O)C(=O)O (stereo partly drawn) [Example 19 (d), (Z)-4-[(R)-2-Amino-2-carboxyethyldisulfanyl]-3-carboxymethylidene-1-(α-cyclopropylcarbonyl-2-fluorobenzyl)piperidine]
inhibition at 10 mg/kg (platelet aggregation): 89.2%
